Experiments:
Assay in all cases: Greenhouse pre-emergence GR15/GR85 selectivity test
Format in all cases: in vivo
cotton = tested on: cotton
Description: (§1) A good grade of top soil is placed in aluminum pans and compacted to a depth of three-eighths to one-half inch from the top of the pan. On the top of the soil is placed a number of seeds or vegetative propagules of various plant species. The soil required to level fill the pans after seeding or adding vegetative propagules is weighed into a pan. The soil and a known amount of the active ingredient applied in a solvent or as a wettable powder suspension are thoroughly mixed, and used to cover the prepared pans. After treatment, the pans are given an initial overhead irrigation of eater, equivalent to one-fourth inch (0.64 cm) rainfall, then watered by subirrigation as need to give adequate moisture for germination and growth. As an alternative procedure, the overhead irrigation may be omitted. Observations are made about 2-3 weeks after seeding and treatment.
(§2) In the discussion and tables of data below, reference is made to herbicide application rates symbolized as "GR15 " and "GR85 "; these rates are given in kilograms per hectare (kg/ha) which are convertible into pounds per acre (lbs/A) by dividing the kg/ha rate by 1.12.
(§3) A further guide to the effectiveness of a chemical as a selective herbicide is the "selectivity factor" ("SF") for a herbicide in given crops and weeds. The selectivity factor is a measure of the relative degree of crop safety and weed injury and is expressed in terms of the GR15 /GR85 ratio, i.e., the GR15 rate for the crop divided by the GR85 rate for the weed, both rates in kg/ha (lb/A). In the tables below, selectivity factors are shown in parenthesis following the GR85 rate for each weed; the symbol "NS" indicates "non-selective". Marginal or undetermined selectivity is indicated by a dash (--).
(§4) Additionally, pre-emergence herbicidal data from other tests have established that compounds according to this invention also selectively suppress quackgrass, yellow nutsedge and/or other weeds in one or more of the crops cotton, peanuts, bush beans and/or rape. For example, in Table VI are presented data showing the herbicidal selectivity of the compounds of Examples 1 and 2 against quackgrass in rape and snap beans. Unless otherwise noted; greenhouse tests in Table VI and in other tables below involved herbicide treatments by soil incorporation and an initial overhead irrigation followed by subirrigation as described above.
In one multi-crop test in the greenhouse, the compounds of Examples 1, 9, and 10 were tested against yellow nutsedge in cotton, soybeans, corn and rice; each compound was non-selective with respect to yellow nutsedge in rice. However, markedly high selectivities for yellow nutsedge in cotton, soybeans and corn were shown for each of the compounds in the test; the respective GR15 and GR85 rates for these compounds are shown in Table XII selectivity factors are shown in parenthesis after each crop.

shattercane = tested on: shattercane
How it was run: (§5)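 Top soil was compacted in pans, seeds placed on the surface, and the covering soil mixed with a known quantity of active ingredient before being spread over them. After an initial overhead watering, pans were subirrigated and scored 2-3 weeks later.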

alexandergrass = tested on: alexandergrass
How it was run: as §5

fall panicum = tested on: fall panicum
How it was run: as §5

seedling johnsongrass = tested on: seedling johnsongrass
How it was run: as §5

Texas panicum = tested on: Texas panicum
How it was run: as §5

itchgrass = tested on: itchgrass
How it was run: as §5

peanuts = settings: Table XVI
Description: as §1, §2, §3, §4
(§6) Additional greenhouse tests were made to test certain compounds of this invention against a plurality of problem weeds in peanuts and lima beans; except for fall panicum, the test weeds are particularly resistant weeds; the test data is set forth in Table XVI.
(§7) In Table XVI, the selectivity factors for the test compounds for each weed in lima beans is shown as the first or upper value in parenthesis and the selectivity factors for each weed in peanuts is shown as the second or lower value in parenthesis for each compound. For example, the selectivity factor for the compound of Example 3 for seedling johnsongrass in lima beans is 2.1 and in peanuts, >4.9; the selectivity factor for Texas panicum in lima beans is 1.1 and in peanuts, >2.6, etc.

lima beans = settings: Table XVI
Description: as §1, §2, §3, §4, §6, §7

| SMILES | GR15 (cotton; Table XII) [Kg/Ha] | GR15 Rate (peanuts) [Kg/Ha] | GR15 Rate (lima beans) [Kg/Ha] | GR85 Rate (shattercane; Table XVI) [Kg/Ha] | selectivity factor (GR15/GR85) (shattercane; in lima beans, Table XVI) | selectivity factor (GR15/GR85) (shattercane; in peanuts, Table XVI) | GR85 Rate (alexandergrass; Table XV) [Kg/Ha] | selectivity factor (GR15/GR85) (alexandergrass; in rape, Table XV) | GR85 Rate (fall panicum; Table XVI) [Kg/Ha] | selectivity factor (GR15/GR85) (fall panicum; in lima beans, Table XVI) | selectivity factor (GR15/GR85) (fall panicum; in peanuts, Table XVI) | GR85 Rate (seedling johnsongrass; Table XVI) [Kg/Ha] | selectivity factor (GR15/GR85) (seedling johnsongrass; in lima beans, Table XVI) | selectivity factor (GR15/GR85) (seedling johnsongrass; in peanuts, Table XVI) | GR85 Rate (Texas panicum; Table XVI) [Kg/Ha] | selectivity factor (GR15/GR85) (Texas panicum; in lima beans, Table XVI) | selectivity factor (GR15/GR85) (Texas panicum; in peanuts, Table XVI) | GR85 Rate (itchgrass; Table XVI) [Kg/Ha] | selectivity factor (GR15/GR85) (itchgrass; in lima beans, Table XVI) | selectivity factor (GR15/GR85) (itchgrass; in peanuts, Table XVI) | also measured |
| --- | --- | --- | --- | --- | --- | --- | --- | --- | --- | --- | --- | --- | --- | --- | --- | --- | --- | --- | --- | --- | --- |
| CCOCN(C(=O)CCl)c1c(C)cccc1C(F)(F)F [Example 1, N-(ethoxymethyl)-2'-trifluoromethyl-6'-methyl-2-chloroacetanilide] | 2.0 |  |  |  |  |  |  |  |  |  |  |  |  |  |  |  |  |  |  |  | GR85 Rate (shattercane; Table XIV): 0.28 Kg/Ha; selectivity factor (GR15/GR85) (shattercane; in soybeans, Table XIV): > 4.0; GR85 Rate (alexandergrass; Table XIV): 0.56 Kg/Ha; selectivity factor (GR15/GR85) (alexandergrass; in soybeans, Table XIV): > 2.0; GR85 Rate (fall panicum; Table XIV): < 0.07 Kg/Ha; selectivity factor (GR15/GR85) (fall panicum; in soybeans, Table XIV): > 16; GR85 Rate (seedling johnsongrass; Table XIV): 0.14 Kg/Ha; selectivity factor (GR15/GR85) (seedling johnsongrass; in soybeans, Table XIV): > 8.0; GR85 Rate (Texas panicum; Table XIV): 1.1 Kg/Ha; selectivity factor (GR15/GR85) (Texas panicum; in soybeans, Table XIV): > 1.0; GR85 Rate (itchgrass; Table XIV): 1.1 Kg/Ha; selectivity factor (GR15/GR85) (itchgrass; in soybeans, Table XIV): > 1.0 |
| CC(C)OCN(C(=O)CCl)c1ccccc1C(F)(F)F [Example 2, N--(isopropoxymethyl)-2'-trifluoromethyl-2-chloroacetanilide] |  |  |  |  |  |  |  |  |  |  |  |  |  |  |  |  |  |  |  |  | GR85 Rate (shattercane; Table XIV): 0.93 Kg/Ha; selectivity factor (GR15/GR85) (shattercane; in soybeans, Table XIV): > 1.12; GR85 Rate (alexandergrass; Table XIV): > 1.1 Kg/Ha; GR85 Rate (fall panicum; Table XIV): < 0.07 Kg/Ha; selectivity factor (GR15/GR85) (fall panicum; in soybeans, Table XIV): > 16; GR85 Rate (seedling johnsongrass; Table XIV): 0.28 Kg/Ha; selectivity factor (GR15/GR85) (seedling johnsongrass; in soybeans, Table XIV): > 4.0; GR85 Rate (Texas panicum; Table XIV): > 1.12 Kg/Ha; GR85 Rate (itchgrass; Table XIV): > 1.1 Kg/Ha |
| CCCOCN(C(=O)CCl)c1c(C)cccc1C(F)(F)F [Example 3, N--(n-propoxymethyl)-2'-trifluoromethyl-6'-methyl-2-chloroacetanilide] |  | > 1.12 | 0.49 | 0.11 | 4.5 | > 10.2 | 0.14 | 6.3 | 0.08 | 6 | > 14 | 0.23 | 2.1 | > 4.9 | 0.43 | 1.1 | > 2.6 | 0.51 | NS (non-selective) | > 2.2 |  |
| Cc1cccc(C(F)(F)F)c1N(COC(C)C)C(=O)CCl [Example 4, N--(isopropoxymethyl)-2'-trifluoromethyl-6'-methyl-2-chloroacetanilide] |  | 0.98 | > 1.12 | 0.51 | > 2.2 | 1.9 | 0.42 | > 2.7 | 0.13 | > 8.6 | 7.5 | 0.51 | > 2.2 | 1.9 | 0.56 | > 2 | 1.8 | 0.50 | > 2.2 | 2 |  |
| Cc1cccc(C(F)(F)F)c1N(COCC(C)C)C(=O)CCl [Example 5, N--(isobutoxymethyl)-2'-trifluoromethyl-6'-methyl-2-chloroacetanilide] |  | 0.56 | > 1.12 | 0.56 | > 2 | 1 | 0.7 | > 1.6 | 0.28 | > 4 | 2 | 0.37 | > 3 | 1.5 | 0.53 | > 2.1 | 1.1 | 0.56 | > 2 | 1 |  |
| CCOCN(C(=O)CCl)c1c(CC)cccc1C(F)(F)F [Example 9, N--(ethoxymethyl)-2'-trifluoromethyl-6'-ethyl-2-chloroacetanilide] | 2.5 | 0.90 | 0.75 | 0.21 | 3.6 | 4.3 | 0.19 | 5.2 | 0.13 | 5.8 | 6.9 | 0.25 | 3 | 3.6 | 0.56 | 1.3 | 1.6 | 0.53 | 1.4 | 1.7 | GR15 (cotton; cotton/yellow nutsedge): 0.7 kg/ha |
| CCCOCN(C(=O)CCl)c1c(CC)cccc1C(F)(F)F [Example 10, N--(n-propoxymethyl)-2'-trifluoromethyl-6'-ethyl-2-chloroacetanilide] | 2.8 | 0.98 | > 1.12 | 0.56 | > 2 | 1.8 | 0.36 | > 3.1 | 0.22 | > 5.1 | 4.5 | 0.36 | > 3.1 | 2.7 | 1.1 | > 1 | NS (non-selective) | 0.90 | > 1.2 | 1.1 |  |

— US4731109A, “Herbicidal 2-haloacetanilides” (Monsanto Company, priority 1982, dated 1988)
